# According to US8173767B2, “Synthetic peptide vaccines for HIV: the CBD epitope as an effective immunogen to elicit broadly neutralizing antibodies against HIV” (Institut Pasteur, priority 2003, dated 2012):
# Ends that are not written are not given here. * marks the point of attachment. Biotin = O=C1N[C@H]2[C@H](CS[C@H]2CCCCC(=O)*)N1
# How the values were obtained:
# caveolin = target: T1, caveolin (Homo sapiens, UniProt Q03135); experiment: Binding of biotinylated CBD-1 to caveolin in crude MT4 cell extracts (avidine-sepharose, immunoblot)
# T1 construct: endogenous in cells
# T1 sequence (Q03135 1-178): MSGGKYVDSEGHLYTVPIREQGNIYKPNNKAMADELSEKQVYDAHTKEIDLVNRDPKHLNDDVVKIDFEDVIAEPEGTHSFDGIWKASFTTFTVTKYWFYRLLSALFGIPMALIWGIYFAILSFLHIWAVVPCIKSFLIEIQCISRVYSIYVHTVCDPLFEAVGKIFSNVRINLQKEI
# Method: MT4 cells were extracted in buffer containing 10 mM Hepes, pH 7.6, 50 mM KCl, 400 mM NaCl, 1 mM EDTA, protease inhibitor cocktail and 1% Triton X-100®. Extracts were centrifuged at 12,000×g and the supernatants were stored at […]. 100 μl of cell extracts were first diluted with 400 μl of homogenization buffer and left at 4° C. for 10 minutes before centrifuging at 12,000×g.
# The diluted supernatants were then incubated at 4° C. in the presence of 0, 2, 5, 10 and 20 μM of the biotinylated CBD-1 peptide. After 90 minutes, 100 μl of avidine-sepharose were added in each sample and the samples were further incubated at 4° C. for 2 hours with gentle shaking. The samples were then washed extensively with PBS and proteins bound to avidine-sepharose were eluted in 100 μl of electrophoresis sample buffer containing SDS and analyzed by SDS-PAGE (using a 12.5% polyacrylamide gel) for immunoblotting with rabbit anti-caveolin 1 antibodies ([…]) as previously described (6).
# Cell extracts were first incubated with 50 μM of CBD-1 (+) or without CBD-1 (−) before the addition of 10 μM biotinylated CBD-1 and further processed as above. Lane E represents the analysis of crude cell extracts diluted 1-fold in the electrophoresis sample buffer. […]
# HeLa cells = experiment: Entry of the CBD-1 peptide into cells (confocal immunofluorescence microscopy); type: cell-based
# Method: (§1) Several studies in laser scanning confocal immunofluorescence microscopy were conducted to investigate the interaction of the CBD-1 peptide with cells and its effect on Midkine. […] Midkine binds its low affinity receptor, surface-expressed nucleolin, before entry into cells by an active process in which lipid rafts appear to be implicated (34).
# On intact cells, the CBD-1 peptide appeared to interact with caveolin at the plasma membrane.
# HeLa cells in culture medium were incubated (45 min at 37° C.) with the biotinylated CBD-1 peptide (5 μM). Cells were then washed and fixed with paraformaldehyde/Triton X-100 solution. […] The secondary antibody was Texas Red dye-conjugated donkey anti-rabbit IgG (Jackson ImmunoResearch Laboratories, PA). Confocal microscopy was performed as described previously (6).
# [1] = tested on: rabbits (Fauves de Bourgogne); experiment: ELISA of sera from rabbit immunized with the C-20 peptide (plates coated with C-20); type: in vivo; conditions: rabbit Hermione; after the first 2 injections; serum dilution 1/2000
# Method: A biotinylated C-20 peptide was synthesized as in Example 2. After synthesis the biotinylated C-20 peptide was solubilized in water containing 10% DMSO at a concentration of 2 mg/ml. 100 μg of this solution (corresponding to 50 μl) was mixed with 50 μg of streptavidin in 250 μl distilled water. This solution was then mixed with 250 μl of adjuvant; complete Freund's adjuvant (CFA) for the first injection and incomplete Freund's adjuvant (IFA) for the following injections. Rabbits (Fauves de Bourgogne) were injected intramuscularly with 500 μl of the antigen/adjuvant mixture. 10 ml of blood was collected from the rabbits before the first injection of antigen. This serum is referred to as S0 or pre-immune serum.
# All sera were tested by ELISA using 2 types of plates (PVC and Maxisorp) coated with the C-20 peptide.
# Midkine = experiment: Effect of the CBD-1 peptide on Midkine binding and entry into cells (confocal microscopy); type: cell-based
# Method: as §1
# [2] = tested on: rabbits (Fauves de Bourgogne); experiment: ELISA of sera from rabbit immunized with the CBD-1 peptide (plates coated with CBD-1); type: in vivo
# Method: The biotinylated CBD-1 peptide was solubilized in water containing 10% DMSO at a concentration of 2 mg/ml. 100 μg of this solution (50 μl) was mixed with 50 μg of streptavidin in 250 μl of distilled water. This solution was then mixed with 250 μl of complete Freund's adjuvant (CFA) for the first injection and incomplete Freund's adjuvant (IFA) for the following injections. 10 ml of blood was collected from the rabbits before the first injection of antigen; this serum was referred to as S0 or pre-immune serum.
# The rabbits (Fauves de Bourgogne) were injected intramuscularly with 500 μl of the antigen/adjuvant mixture. The following Table 1 presents the injection and bleeding dates of the rabbit named “Aldernay”:
# All sera were tested by ELISA using 2 types of plates (PVC and Maxisorp) coated with the CBD-1 peptide. The optical density (OD) was measured at 450 nm. An OD value above 0.20 was considered positive.
substance,measurement,setting,value
biotinylated CBD-1: CBD-1 peptide with a biotinyl moiety coupled at the N terminus (Biotin-LEQIWNNMTWMQWDK),caveolin purified from crude extracts with the biotinylated peptide,"caveolin; 0, 2, 5, 10 and 20 μM biotinylated CBD-1, 4° C.",in a dose dependent manner
same,capacity to bind caveolin in the presence of excess CBD-1,caveolin; 50 μM CBD-1 before 10 μM biotinylated CBD-1,reduced capacity
same,localization of the peptide in cells,"HeLa cells; HeLa cells, 5 μM, 45 min at 37° C.",localized in the cytoplasm
DGIWKASFTTFTVTKYWFYR (DGIWKASFTTFTVTKYWFYR) [C-20 peptide],antibodies against C-20 in serum (ELISA),[1],significant amount of antibodies against C-20
L-E-Q-I-W-N-N-M-T-W-M-Q-W-D-K (LEQIWNNMTWMQWDK) [CBD-1 peptide],Midkine binding to cells,Midkine,without affecting Midkine binding to cells
same,entry of Midkine into cells,Midkine,blocks entry of Midkine into cells
same,antibodies against CBD-1 in serum (ELISA),"[2]; after the first 3 injections, serum dilution 1/2,000",significant amount of antibodies against CBD-1
same,"immunogenicity of the peptide (anti-CBD-1 antibodies in serum, ELISA)","[2]; rabbit Aldernay, intramuscular, biotinylated peptide with streptavidin in CFA/IFA, OD 450 nm above 0.20 positive",immunogenic
same,entry of the peptide into cells,HeLa cells; dependence on incubation temperature,occurred at 37 °C but not at 20 °C
